Molecules are shown by their SMILES.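 Each compound was tested at five concentrations against cells in 96-well plates for 48 hours. GI50: concentration for 50% inhibition of growth.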 Activity calls are given as the source filed them. Cut-off read from the data, not from the text of the source: active = GI50 up to about 1.1 µM and inactive = higher.

Assay in all cases: growth of human tumour cells (NCI), 48 h
Assay [1] deals with MCF7.
The test system of assay [2] is UACC-62.
Assay [3] concerns SNB-75.
Assay [4] concerns TK-10.
Assay [5] deals with EKVX.
Assay [6] relates to HL-60.
Assay [7] relates to NCI-H522.
For assay [8], the system named is BT-549.
Assay [9] relates to OVCAR-4.
The subject of assay [10] is NCI/ADR-RES.
In assay [11] the test system is SK-MEL-5.
In assay [12] the test system is HCT-116.
The test system of assay [13] is SW-620.
Assay [14] relates to NCI-H23.
The test system of assay [15] is IGROV-1.
The test system of assay [16] is HCT-15.
The test system of assay [17] is KM12.
Assay [18] relates to NCI-H460.
Assay [19] concerns ACHN.
Assay [20] relates to Malme-3M.

Take `COc1ccc(CC2C(=O)NC(C)C(=O)N(C)C3C(=O)N(C)C(Cc4ccc(O)c(c4)Oc4ccc(cc4)C3O)C(=O)NC(C)C(=O)NC(C)C(=O)N2C)cc1.COc1ccc(CC2C(=O)NC(C)C(=O)N(C)C3Cc4ccc(cc4)Oc4cc(ccc4O)CC(C(=O)NC(C)C(=O)NC(C)C(=O)N2C)N(C)C3=O)cc1` (stereo not drawn): the GI50 in assay [1] is 0.00215 µM (active); in assay [2], 0.00266 µM (active); in assay [3], 0.01 µM (active); in assay [4] it was 0.0408 µM (active); in [5] it was 0.148 µM (active); in [6] it was 0.01 µM (active). The GI50 in assay [7] was 0.01 µM (active); in [8], 0.00321 µM (active); in [9] it was 0.0127 µM (active); in [10], 1.5 µM (inactive); in assay [11] it was 0.0168 µM (active); in assay [12], 0.00108 µM (active). In addition, the GI50 in assay [13] was 0.00718 µM (active); in assay [14], 0.00552 µM (active); in assay [15] it was 0.01 µM (active); in assay [16] it was 0.483 µM; in [17] it was 0.0024 µM (active); in assay [18] it was 0.0413 µM (active). Moreover, the GI50 in assay [19] is 0.0995 µM (active).
As to `CC1(c2ccc(Cl)cc2)C=C(c2ccc(Cl)cc2)C(C#N)=C(C(C#N)C#N)N1.CNC` (stereo not drawn), the GI50 in assay [1] was 16.6 µM (inactive); in [2], 14.1 µM (inactive); in assay [3], 18.8 µM (inactive); in [4] it was 18.7 µM (inactive); in [5], 16.6 µM (inactive); in assay [6] it was 13.1 µM (inactive). In addition, the GI50 is 21.2 µM (inactive) in assay [8]; 15.1 µM (inactive) in assay [9]; 17.9 µM (inactive) in [10]; 14.1 µM (inactive) in [20]; 14.2 µM (inactive) in assay [11]; 14 µM (inactive) in assay [12]. The GI50 in [13] was 12.7 µM (inactive); in [14], 15.3 µM (inactive); in assay [15], 12.9 µM (inactive); in assay [16], 15.1 µM; in assay [17] it was 17.3 µM (inactive); in assay [18], 20.4 µM (inactive). Further, the GI50 in [19] is 16.6 µM (inactive).
As for `c1cn(C23C4C5C6C4C2C6C53)cn1` (stereo not drawn), the GI50 in assay [1], in assay [3], in [4], in assay [5], in assay [6] and in [7] was > 100 µM (inactive) throughout. Also, the GI50 in [8], in assay [10], in [11], in assay [12], in assay [13] and in assay [14] was > 100 µM (inactive) throughout. Also, the GI50 in assay [15] is > 100 µM (inactive); in assay [16] it was greater than 100 µM; in assay [17], > 100 µM (inactive); in assay [18] it was > 100 µM (inactive); in [19], > 100 µM (inactive).
In the case of `CC12CCC([C@H](C(O)C3CCCCC3)C1=O)C2(C)C` (stereo partly drawn), the GI50 in assay [1] was > 100 µM (inactive); in [2], > 100 µM (inactive); in [3] it was > 100 µM (inactive); in [4], > 100 µM (inactive); in assay [5], > 100 µM (inactive); in assay [6] it was 13.9 µM (inactive). The GI50 in assay [7] was 65.8 µM (inactive); in assay [8], > 100 µM (inactive); in assay [9], > 100 µM (inactive); in [10], > 100 µM (inactive); in assay [11], 82.2 µM (inactive); in assay [12] it was > 100 µM (inactive). For the same compound, the GI50 in [13] was > 100 µM (inactive); in assay [14], > 100 µM (inactive); in assay [15], > 100 µM (inactive); in assay [16], greater than 100 µM; in assay [17], > 100 µM (inactive); in [18], > 100 µM (inactive). Besides, the GI50 in [19] was > 100 µM (inactive).
As to `O=[N+]([O-])c1ccc(Cl)cc1N/N=C/c1cccc2cccnc12`, the GI50 was > 100 µM (inactive) in assay [1]; > 100 µM (inactive) in assay [2]; 59.2 µM (inactive) in assay [3]; > 100 µM (inactive) in assay [4]; > 100 µM (inactive) in [5]; > 100 µM (inactive) in [6]. The GI50 in assay [7] is > 100 µM (inactive); in [8], > 100 µM (inactive); in assay [9] it was 92.7 µM (inactive); in assay [10] it was > 100 µM (inactive); in assay [11], > 100 µM (inactive); in assay [12] it was 54 µM (inactive). Also, the GI50 in assay [13] is 96.6 µM (inactive); in assay [14], > 100 µM (inactive); in [15], > 100 µM (inactive); in [16] it was greater than 100 µM; in [17], > 100 µM (inactive); in [18], > 100 µM (inactive). Also, the GI50 in assay [19] was > 100 µM (inactive).
Turning to `C/C(=C\Cc1ccc(F)cc1)CCCCCC/C(C)=C/Cc1ccc(F)cc1`, the GI50 in assay [1] was 19.3 µM (inactive); in [2], 16.6 µM (inactive); in assay [3] it was 18.7 µM (inactive); in [4], 15.5 µM (inactive); in assay [5] it was 14.9 µM (inactive); in [7], 6.59 µM (inactive). The GI50 in assay [8] was 28.6 µM (inactive); in assay [9] it was 16.3 µM (inactive); in assay [10] it was 11.9 µM (inactive); in assay [11], 12.1 µM (inactive); in assay [12], 15.8 µM (inactive); in [13], 17.9 µM (inactive). The GI50 is 10.8 µM (inactive) in [14]; 4.63 µM (inactive) in [15]; 16.8 µM in assay [16]; 2.25 µM (inactive) in [17]; 4.71 µM (inactive) in assay [18]; 12.2 µM (inactive) in assay [19].
Take `CC1(C)C(=O)C=CC2(C)C1CC(O)C1(C)C2CCC2(C)C(c3ccoc3)OC(=O)C3OC321` (stereo not drawn): the GI50 was 28.8 µM (inactive) in assay [1]; 12.6 µM (inactive) in assay [2]; 15.9 µM (inactive) in [3]; 16 µM (inactive) in [4]; 12.5 µM (inactive) in assay [5]; 11.5 µM (inactive) in assay [7]. Further, the GI50 in [8] was 18.7 µM (inactive); in [9] it was 15 µM (inactive); in [10] it was 14.4 µM (inactive); in assay [11], 6.43 µM (inactive); in [12], 15.3 µM (inactive); in assay [13], 19.8 µM (inactive). Besides, the GI50 in [14] is 12.1 µM (inactive); in assay [15], 14.3 µM (inactive); in assay [16], 10.6 µM; in assay [17] it was 14.9 µM (inactive); in [18], 13.6 µM (inactive); in assay [19], 14.1 µM (inactive).
On to `O=C(c1cccc2ccccc12)C1S(=O)(=O)OCCOS1(=O)=O`, for which the GI50 in assay [1], in assay [4], in assay [5], in assay [6], in assay [8] and in assay [9] was > 100 µM (inactive) each time. Further, the GI50 in assay [10] was > 100 µM (inactive); in assay [20] it was > 100 µM (inactive); in assay [11], > 100 µM (inactive); in assay [12], > 100 µM (inactive); in [14] it was > 100 µM (inactive); in [16] it was greater than 100 µM. For the same compound, the GI50 in assay [17], in assay [18] and in [19] was > 100 µM (inactive) each time.
Turning to `COc1ccc2c(c1)C(N)=C(c1ccccc1OC)C2=O`, the GI50 in assay [1] was > 100 µM (inactive); in assay [2], 77.8 µM (inactive); in assay [3] it was 64.3 µM (inactive); in [4] it was > 100 µM (inactive); in assay [5] it was > 100 µM (inactive); in [6], 23.5 µM (inactive). Also, the GI50 in assay [8] was > 100 µM (inactive); in assay [9] it was 99.5 µM (inactive); in [10], > 100 µM (inactive); in assay [20], > 100 µM (inactive); in assay [12] it was > 100 µM (inactive); in assay [13], > 100 µM (inactive). Further, the GI50 in assay [14] was > 100 µM (inactive); in assay [15] it was > 100 µM (inactive); in assay [16], greater than 100 µM; in assay [17], 76.6 µM (inactive); in assay [18] it was > 100 µM (inactive); in [19], > 100 µM (inactive).
Regarding `CC1(C)OC[C@@H]([C@H](O)C2C=CC(=O)S2)O1` (stereo partly drawn), the GI50 was 30.2 µM (inactive) in assay [1]; 14.6 µM (inactive) in [2]; 45.5 µM (inactive) in [3]; 44.9 µM (inactive) in assay [4]; 31 µM (inactive) in assay [5]; 8.73 µM (inactive) in assay [6]. In addition, the GI50 in assay [8] was 17.9 µM (inactive); in assay [9], 42.1 µM (inactive); in assay [10], 21.5 µM (inactive); in assay [20], 18.1 µM (inactive); in assay [11], 18.7 µM (inactive); in assay [12], 14.3 µM (inactive). For the same compound, the GI50 in assay [13] was 32 µM (inactive); in [14] it was 26.4 µM (inactive); in assay [16] it was 19.8 µM; in assay [17], 14.6 µM (inactive); in assay [18], 28.2 µM (inactive); in [19], 19.2 µM (inactive).
For the compound `O=C(NCc1ccc(Cl)c(Cl)c1)c1nc2ccccc2nc1NCc1ccc(Cl)c(Cl)c1`, the GI50 in assay [1], in assay [2], in assay [3], in assay [4], in [5] and in assay [6] was > 100 µM (inactive) in each case. Besides, the GI50 in assay [7], in assay [8], in assay [10], in assay [11], in [12] and in [13] was > 100 µM (inactive) throughout. Moreover, the GI50 in [14] was > 100 µM (inactive); in assay [15] it was > 100 µM (inactive); in assay [16], greater than 100 µM; in assay [17], > 100 µM (inactive); in [18] it was > 100 µM (inactive); in assay [19] it was > 100 µM (inactive).

Source of the values: ChEMBL document CHEMBL1201862, “PubChem BioAssay data set” (2004).
